# Where two headings read alike, the source gives them in different places.
# Legend:
# [1] = molecular target: GST-bound ERR gamma ligand-binding domain (LBD) (Homo sapiens (Human), UniProt P62508); experiment: ERRγ binding assay (inverse agonist assay), TR-FRET
# Protocol: 1) ERRγ Binding Assay (Inverse Agonist Assay)
# (§2) The arylethene derivative of the present invention was sequentially added to a 384 well plate from a concentration of 10 μM to a final concentration of two-fold dilution. […] After all reagents were added, a reaction was carried out with gentle shaking at 20° C. for 1 hour, and after the reaction, a binding activity was measured by a TR-FRET method.
# [2] = molecular target: GST-bound ERR alpha LBD (Homo sapiens (Human), UniProt P11474); conditions: TR-FRET, PGC1a coactivator; read-out: Binding Assay, IC50 ERRα
# Protocol: as §2
# [3] = system: ERRγ; type: cell-based
# [4] = molecular target: GST-bound ER alpha ligand-binding domain (LBD) (Homo sapiens (Human), UniProt P03372); experiment: biochemical; conditions: TR-FRET, beta-estradiol 4 nM as agonist; read-out: Binding Assay, IC50 ERα
# Protocol: as §2
# [5] = in vitro; type: in vitro ADME; design: Papp at 5 h: dose or concentration left out as unconfirmed; conditions: PBS pH 7.4, 25° C.; for Papp at 5 h: PAMPA, read-out: Permeability Pampa; for Permeability Pampa: 5 hours
# [6] = 1 μM, 30 minutes, 37° C., NADPH
# [7] = 1 μM, 30 minutes, 37° C., NADPH; remark: listed apart in the source
# Protocol: 2) Microsomal Stability Evaluation
# (§3) Four liver microsomes (Human, Dog, Rat, Mouse 0.5 mg/ml) with a 0.1 M phosphate buffer solution (pH 7.4), and the arylethene derivative of the present invention were added to a concentration of 1 μM, culturing was performed at 37° C. for 5 minutes in advance, a NADPH regeneration system solution was added thereto, and culturing was performed at 37° C. for 30 minutes. Thereafter, in order to complete the reaction, an acetonitrile solution containing an internal standard material (chlorpropamide) was added thereto, centrifugation (14,000 rpm, 4° C.) was performed for 5 minutes, and a supernatant was injected into a LC-MS/MS system to analyze the substrate drug, thereby evaluating metabolism stability to the arylethene derivative of the present invention.
# [8] = molecular target: CYP2D6 (Homo sapiens (Human), UniProt P10635); experiment: Cytochrome P450 activity inhibition, CYP2D6; type: in vitro ADME; conditions: 10 μM, human liver microsomes, Dextromethorphan substrate
# From the text: (§1) 1) Cytochrome P450 (CYP450) Activity Inhibition Evaluation
# [9] = molecular target: CYP1A2 (Homo sapiens (Human), UniProt P05177); experiment: Cytochrome P450 activity inhibition, CYP1A2; type: in vitro ADME; conditions: 10 μM, human liver microsomes, Phenacetin substrate
# From the text: as §1
# [10] = molecular target: CYP2C19 (Homo sapiens (Human), UniProt P33261); experiment: Cytochrome P450 activity inhibition, CYP2C19; type: in vitro ADME; conditions: 10 μM, human liver microsomes, S-mephenytoin substrate
# From the text: as §1
# [11] = molecular target: CYP2C9 (Homo sapiens (Human), UniProt P11712); experiment: Cytochrome P450 activity inhibition, CYP2C9; type: in vitro ADME; conditions: 10 μM, human liver microsomes, Diclofenac substrate
# From the text: as §1
# [12] = molecular target: CYP3A4 (Homo sapiens (Human), UniProt P08684); experiment: Cytochrome P450 activity inhibition, CYP3A4; type: in vitro ADME; conditions: 10 μM, human liver microsomes, Midazolam substrate
# From the text: as §1
# [13] = molecular target: hERG channel (Homo sapiens (Human), UniProt Q12809); conditions: read-out: hERG IC50; fluorescence polarization assay
# [14] = 1 μM, 30 minutes, 37° C., NADPH; remark: listed apart in the source
# Protocol: 2) Microsomal Stability Evaluation
# as §3
# [15] = 1 μM, 30 minutes, 37° C., NADPH; remark: listed apart in the source
# Protocol: 2) Microsomal Stability Evaluation
# as §3
# [16] = in vivo; type: in vivo; conditions: rat
# [17] = TR-FRET, PGC1a coactivator, read-out: Binding Assay, IC50 ERRγ
# [18] = activity relative to reference compound GSK5182, 10 μM
# Sequence of CYP3A4 (P08684 whole entry): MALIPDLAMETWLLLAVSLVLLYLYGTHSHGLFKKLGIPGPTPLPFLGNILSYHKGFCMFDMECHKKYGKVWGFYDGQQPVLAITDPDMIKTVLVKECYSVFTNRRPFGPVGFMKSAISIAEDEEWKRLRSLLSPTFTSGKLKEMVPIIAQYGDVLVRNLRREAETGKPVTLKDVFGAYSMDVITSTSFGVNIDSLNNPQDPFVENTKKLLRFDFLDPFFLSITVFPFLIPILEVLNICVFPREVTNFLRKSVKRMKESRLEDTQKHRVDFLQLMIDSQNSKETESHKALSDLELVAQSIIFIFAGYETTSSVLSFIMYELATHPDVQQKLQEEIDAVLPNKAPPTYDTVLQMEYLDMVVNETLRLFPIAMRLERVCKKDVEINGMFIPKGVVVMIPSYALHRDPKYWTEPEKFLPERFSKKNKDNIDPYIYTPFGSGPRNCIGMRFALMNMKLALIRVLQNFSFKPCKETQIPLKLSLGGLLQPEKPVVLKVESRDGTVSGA
# Sequence of GST-bound ERR gamma ligand-binding domain (LBD) (P62508 233-457): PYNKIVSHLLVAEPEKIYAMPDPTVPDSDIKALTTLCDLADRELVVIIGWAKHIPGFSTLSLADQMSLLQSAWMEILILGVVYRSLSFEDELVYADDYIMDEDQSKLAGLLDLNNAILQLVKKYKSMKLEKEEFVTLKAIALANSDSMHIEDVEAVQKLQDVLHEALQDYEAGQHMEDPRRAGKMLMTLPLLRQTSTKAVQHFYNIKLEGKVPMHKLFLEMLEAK
# Sequence of GST-bound ER alpha ligand-binding domain (LBD) (P03372 whole entry, looked up, the tested form may be a part): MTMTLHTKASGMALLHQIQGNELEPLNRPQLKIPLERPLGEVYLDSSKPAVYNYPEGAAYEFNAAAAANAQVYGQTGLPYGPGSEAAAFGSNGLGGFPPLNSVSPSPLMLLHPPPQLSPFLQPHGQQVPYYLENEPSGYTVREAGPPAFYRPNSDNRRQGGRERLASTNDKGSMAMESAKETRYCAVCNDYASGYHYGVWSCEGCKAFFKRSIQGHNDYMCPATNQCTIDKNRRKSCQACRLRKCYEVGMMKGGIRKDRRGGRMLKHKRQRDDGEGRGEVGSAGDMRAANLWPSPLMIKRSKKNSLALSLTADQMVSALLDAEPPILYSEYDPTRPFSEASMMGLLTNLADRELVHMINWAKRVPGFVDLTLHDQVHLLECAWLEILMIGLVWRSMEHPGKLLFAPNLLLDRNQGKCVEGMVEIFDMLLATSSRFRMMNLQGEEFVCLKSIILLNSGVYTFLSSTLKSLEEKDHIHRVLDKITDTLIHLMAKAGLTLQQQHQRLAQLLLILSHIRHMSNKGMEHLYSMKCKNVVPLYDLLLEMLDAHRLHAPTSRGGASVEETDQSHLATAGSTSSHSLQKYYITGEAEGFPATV
# Sequence of CYP2C9 (P11712 whole entry): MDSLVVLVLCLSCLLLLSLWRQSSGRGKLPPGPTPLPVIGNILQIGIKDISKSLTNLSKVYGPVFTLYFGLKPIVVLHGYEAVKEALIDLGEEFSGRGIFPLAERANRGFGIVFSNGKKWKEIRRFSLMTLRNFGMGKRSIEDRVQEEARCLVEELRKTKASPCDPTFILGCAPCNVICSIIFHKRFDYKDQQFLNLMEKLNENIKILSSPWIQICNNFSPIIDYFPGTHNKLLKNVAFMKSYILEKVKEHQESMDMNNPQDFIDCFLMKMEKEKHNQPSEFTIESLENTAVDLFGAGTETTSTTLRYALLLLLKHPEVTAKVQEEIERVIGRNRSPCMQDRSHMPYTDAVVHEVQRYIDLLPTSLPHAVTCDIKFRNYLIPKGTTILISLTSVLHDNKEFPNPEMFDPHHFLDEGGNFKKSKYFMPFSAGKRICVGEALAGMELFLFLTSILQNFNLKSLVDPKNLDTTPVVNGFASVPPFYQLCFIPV
# Sequence of GST-bound ERR alpha LBD (P11474 193-421): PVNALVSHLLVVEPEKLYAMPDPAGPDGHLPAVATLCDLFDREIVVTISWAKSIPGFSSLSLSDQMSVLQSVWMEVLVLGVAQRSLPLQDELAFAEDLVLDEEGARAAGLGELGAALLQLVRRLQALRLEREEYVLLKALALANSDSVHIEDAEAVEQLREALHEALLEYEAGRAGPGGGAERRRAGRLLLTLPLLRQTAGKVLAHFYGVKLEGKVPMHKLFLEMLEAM
# Sequence of CYP1A2 (P05177 whole entry): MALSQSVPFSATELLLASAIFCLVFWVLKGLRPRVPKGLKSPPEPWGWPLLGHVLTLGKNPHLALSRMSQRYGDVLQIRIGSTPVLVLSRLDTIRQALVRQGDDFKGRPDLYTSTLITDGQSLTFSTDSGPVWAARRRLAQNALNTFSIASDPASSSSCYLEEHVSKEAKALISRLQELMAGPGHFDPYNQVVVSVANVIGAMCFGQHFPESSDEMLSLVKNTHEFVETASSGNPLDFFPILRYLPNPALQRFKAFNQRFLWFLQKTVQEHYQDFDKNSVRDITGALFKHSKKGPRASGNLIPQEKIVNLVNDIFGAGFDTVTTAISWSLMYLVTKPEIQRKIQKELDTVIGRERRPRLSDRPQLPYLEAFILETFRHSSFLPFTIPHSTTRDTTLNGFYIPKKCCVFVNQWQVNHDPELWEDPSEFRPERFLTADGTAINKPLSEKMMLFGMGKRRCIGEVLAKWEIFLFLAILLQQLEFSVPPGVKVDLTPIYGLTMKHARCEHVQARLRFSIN
# Sequence of CYP2C19 (P33261 whole entry): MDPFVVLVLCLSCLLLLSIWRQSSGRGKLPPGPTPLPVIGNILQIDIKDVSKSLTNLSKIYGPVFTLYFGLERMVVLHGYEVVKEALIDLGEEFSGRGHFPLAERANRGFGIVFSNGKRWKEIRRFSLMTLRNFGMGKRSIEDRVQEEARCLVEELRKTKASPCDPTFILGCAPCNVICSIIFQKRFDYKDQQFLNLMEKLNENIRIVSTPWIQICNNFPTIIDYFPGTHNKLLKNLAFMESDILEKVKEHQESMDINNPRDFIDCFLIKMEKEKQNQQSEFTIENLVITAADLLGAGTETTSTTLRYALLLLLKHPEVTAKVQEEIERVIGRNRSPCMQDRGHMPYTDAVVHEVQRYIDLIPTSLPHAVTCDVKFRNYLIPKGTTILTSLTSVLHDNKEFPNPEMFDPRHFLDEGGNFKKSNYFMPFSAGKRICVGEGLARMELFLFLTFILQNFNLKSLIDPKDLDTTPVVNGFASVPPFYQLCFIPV
# Sequence of CYP2D6 (P10635 whole entry): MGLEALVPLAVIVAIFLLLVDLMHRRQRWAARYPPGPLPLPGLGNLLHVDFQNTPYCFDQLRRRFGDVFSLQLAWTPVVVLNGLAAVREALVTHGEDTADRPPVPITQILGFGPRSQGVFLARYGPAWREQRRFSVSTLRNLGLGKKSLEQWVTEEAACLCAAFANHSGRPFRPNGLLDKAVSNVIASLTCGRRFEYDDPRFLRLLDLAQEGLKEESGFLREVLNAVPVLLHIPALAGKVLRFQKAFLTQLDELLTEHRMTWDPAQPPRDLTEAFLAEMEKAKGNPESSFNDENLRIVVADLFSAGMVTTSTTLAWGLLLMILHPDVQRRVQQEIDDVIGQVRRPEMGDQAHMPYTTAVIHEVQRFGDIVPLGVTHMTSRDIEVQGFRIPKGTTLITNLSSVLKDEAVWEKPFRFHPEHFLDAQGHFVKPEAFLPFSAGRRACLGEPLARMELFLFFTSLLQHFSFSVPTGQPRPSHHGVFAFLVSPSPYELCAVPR
Structure (SMILES),"IC50 [1, 17]",IC50 [2],"Functional Assay at 10 μM (% of control), Cpds ([3]; 10 μM, 24 hours, AD293)",IC50 [4],"Functional Assay, Cpds/Ref 5182 [3, 18]",MS(Microsomal Stability) (%) rat [6],MS(Microsomal Stability) (%) human [7],CYP inhibition (% of control) 2D6 [8],CYP inhibition (% of control) 1A2 [9],CYP inhibition (% of control) 2C19 [10],CYP inhibition (% of control) 2C9 [11],Permeability Pampa [5],CYP inhibition (% of control) 3A4 [12],IC50 [13],MS(Microsomal Stability) (%) mouse [14],MS(Microsomal Stability) (%) dog [15],other results
OCCC/C(=C(\c1ccc(O)cc1)c1ccc(OCCN2CCCC2)cc1)c1ccccc1 [Compound 6e],0.067 µM,> 10 µM,5.61 % of control,0.408 µM,–,–,–,–,–,–,–,–,–,–,–,–,"Functional Assay, Cpds/Ref 5182 [3]: 1.82"
CN1CCC[C@H]1CCOc1ccc(/C(=C(/CCCO)c2ccccc2)c2ccc(O)cc2)cc1 [Compound 6j],0.034 µM,–,2.44 % of control,–,0.77,–,–,–,–,–,–,–,–,–,–,–,–
CN1CCC[C@@H]1CCOc1ccc(/C(=C(/CCCO)c2ccccc2)c2ccc(O)cc2)cc1 [Compound 6k],0.026 µM,–,2.5 % of control,–,0.79,–,–,–,–,–,–,–,–,–,–,–,Papp at 5 h [5]: 0.12 ×10⁻⁶ cm/s
CN1CCC[C@H]1COc1ccc(/C(=C(/CCCO)c2ccccc2)c2ccc(Br)cc2)cc1 [Compound 13b],0.064 µM,–,–,–,–,66.2%,61.2%,–,–,–,–,–,–,–,–,–,"Functional Assay at 10 μM (% of control), Cpds [3]: 1.5 % of control; Functional Assay, Cpds/Ref 5182 [3]: 0.48; Papp at 5 h [5]: 0.93 ×10⁻⁶ cm/s"
CN1CCN(c2ccc(/C(=C(/CCCO)c3ccccc3)c3ccc([N+](=O)[O-])cc3)cc2)CC1 [Compound 18c],–,–,1.31 % of control,–,0.42,72.8%,96.9%,75.6 % of control,92.2 % of control,80 % of control,81.7 % of control,5.73 10^−6 cm/s,64.1 % of control,11.6 µM,–,–,–
CC(C)N1CCN(c2ccc(/C(=C(/CCCO)c3ccccc3)c3ccc([N+](=O)[O-])cc3)cc2)CC1 [Compound 18g],–,–,1.62 % of control,–,0.84,85.3%,87.9%,–,–,–,–,4.8 10^−6 cm/s,–,17.9 µM,84.1%,84.9%,–
CC(C)N1CCN(c2ccc(/C(=C(/CCCO)c3ccccc3)c3ccc(Br)cc3)cc2)CC1 [Compound 18h],0.032 µM,> 10 µM,4.47 % of control,> 10 µM,1.09,74.2%,>100%,71.5 % of control,93.5 % of control,86.3 % of control,96.9 % of control,0.37 10^−6 cm/s,64.5 % of control,–,48.5%,64.4%,–
CCN1CCN(c2ccc(/C(=C(/CCCO)c3ccccc3)c3ccc(C)cc3)cc2)CC1 [Compound 18j],0.025 µM,> 10 µM,3.28 % of control,> 10 µM,1.21,62.8%,67.9%,86.6 % of control,>100 % of control,74 % of control,87 % of control,1.61 10^−6 cm/s,77.6 % of control,–,54.9%,58.0%,"AUCINF ([16]; IV, 1 mg/kg): 0.60 μMh; AUCall ([16]; IV, 1 mg/kg): 0.55 μMh; Cl(observed)/F ([16]; IV, 1 mg/kg): 59 mL/min/kg; Vss ([16]; IV, 1 mg/kg): 9.8 L/kg; t1/2 ([16]; IV, 1 mg/kg): 3.2 h; AUCINF ([16]; PO, 10 mg/kg): 1.61 μMh; AUCall ([16]; PO, 10 mg/kg): 1.07 μMh; BA ([16]; PO, 10 mg/kg): 19.6%; Tmax ([16]; PO, 10 mg/kg): 3 h; Cmax ([16]; PO, 10 mg/kg, read-out: Cmax): 210 nM"
Cc1ccc(/C(=C(\CCCO)c2ccccc2)c2ccc(C3CNC3)cc2)cc1 [Compound 20d],–,–,–,–,–,54%,83%,–,–,–,–,0.23 10^−6 cm/s,–,15 µM,11.3%,–,–
OCCC/C(=C(\c1ccc(O)cc1)c1ccc(C2CN(C3CC3)C2)cc1)c1ccccc1 [Compound 22d],–,–,–,–,–,60.2%,57.6%,82.5 % of control,>100 % of control,>100 % of control,>100 % of control,0.38 10^−6 cm/s,66.1 % of control,6 µM,–,–,–
OCCC/C(=C(\c1ccc(O)cc1)c1ccc(C2=CCN(C3CC3)CC2)cc1)c1ccccc1 [Compound 22j],–,–,–,–,–,65.5%,65.2%,97.1 % of control,95.7 % of control,89.6 % of control,88 % of control,–,85 % of control,8.8 µM,34.9%,54.9%,–
OCCC/C(=C(\c1ccc(O)cc1)c1ccc(N2CCN(C3CCCC3)CC2)cc1)c1ccccc1 [Compound 22n],–,–,3.47 % of control,–,1.28,47.8%,56.3%,82.6 % of control,99 % of control,83 % of control,97.4 % of control,–,88.3 % of control,14.6 µM,37.8%,72.0%,–
OCCC/C(=C(\c1ccc(O)cc1)c1ccc(N2CCN(C3CCCCC3)CC2)cc1)c1ccccc1 [Compound 22p],0.099 µM,9.7 µM,–,2.12 µM,–,75.3%,72.3%,79.6 % of control,88.1 % of control,61.5 % of control,81.8 % of control,0.2 10^−6 cm/s,90.6 % of control,–,40.4%,77.7%,–
OCCC/C(=C(\c1ccc(O)cc1)c1ccc(N2CCN(C3CCC3)CC2)cc1)c1ccccc1 [Compound 22q],0.053 µM,> 10 µM,–,1.66 µM,–,67.6%,63.7%,77.6 % of control,99.9 % of control,92.8 % of control,77.7 % of control,0.77 10^−6 cm/s,81 % of control,–,17.6%,43.8%,–
"CC(C)N1CCN(c2ccc(/C(=C(/CCCO)c3ccccc3)c3ccc(NS(C)(=O)=O)cc3)cc2)CC1 [Compound 27a, (E)-N-(4-(5-hydroxy-1-(4-(4-isopropylpiperazin-1-yl)phenyl)-2-phenylpent-1-en-1-yl)phenyl)methanesulfonamide]",–,–,–,–,–,65.0%,66.2%,–,–,–,–,–,–,–,32.7%,50.3%,"IC50 [1]: 0.026 µM; Functional Assay at 10 μM (% of control), Cpds [3]: 2.1 % of control; Functional Assay, Cpds/Ref 5182 [3]: 0.77; Papp at 5 h [5]: 2.22 ×10⁻⁶ cm/s"

# From patent US10934303B2, “Aryl ethene derivative and pharmaceutical composition containing same as active ingredient” (priority 2016, dated 2021)
